The source made the active and inactive calls. Cut-off read from the data, not from the text of the source, for most assays here: actives have a measured EC50 and inactives only a lower limit. Some results are limits rather than exact numbers.
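Throughout, for AC50: cells exposed to compound for roughly 70 hours or longer before luminescence read.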

The test system of one test is Streptococcus sp. 'group A'. Description: growth inhibition of control SK(-) GAS strain, dose response, counter-screen for streptokinase expression inhibitor project, luminescence, kanamycin, BacTiterGlo, confirmation (AID 1900). The test is classed as functional, organism-based.
Settings: not given
In general terms: The purpose of a counterscreen is to sort out artefacts and off-target activity.
The EC50 is the concentration needed to bring the measured effect to its halfway point. For the compound `O=c1cc(N2CCCCC2)c(-c2ccccc2)nn1Cc1ccc(Cl)cc1Cl`, the EC50 was 3.19 µM (active).
Same read-out and setting: under `CC[C@@H]1CC=C[C@H]2[C@H]1C(=O)N(Cc1ccccc1)[C@H]2c1ccc(OC)c(Cl)c1` stands 6.67 µM (active).
Consider `O=c1cc(-c2ccccc2)[nH]n1-c1nc2ccccc2s1`, for which the EC50 was 2.43 µM (active).

The target of another test is T1, Streptokinase A (Streptococcus pyogenes serotype M1, UniProt P10520).
T1 sequence (P10520 whole entry): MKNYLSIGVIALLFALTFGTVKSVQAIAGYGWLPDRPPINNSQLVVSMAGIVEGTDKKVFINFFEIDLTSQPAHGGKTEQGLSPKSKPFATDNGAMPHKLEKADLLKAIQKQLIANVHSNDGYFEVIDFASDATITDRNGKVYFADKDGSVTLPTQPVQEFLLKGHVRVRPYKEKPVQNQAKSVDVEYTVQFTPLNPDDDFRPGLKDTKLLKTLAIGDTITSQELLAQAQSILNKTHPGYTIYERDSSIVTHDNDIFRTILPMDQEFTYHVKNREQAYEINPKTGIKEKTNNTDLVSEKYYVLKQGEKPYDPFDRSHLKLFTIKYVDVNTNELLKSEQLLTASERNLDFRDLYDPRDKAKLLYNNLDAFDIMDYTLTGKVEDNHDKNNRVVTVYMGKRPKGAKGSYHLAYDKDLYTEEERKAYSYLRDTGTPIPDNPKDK
Description: S. pyogenes streptokinase expression inhibitors, potency, dose response, plasminogen activation absorbance, OD405 (AID 1914).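 Note: secreted streptokinase activity via plasminogen activation per viability signal from cell pellet.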 The test is classed as functional, Streptococcus pyogenes M1 GAS.
Settings: not given
In the case of `O=c1cc(N2CCCCC2)c(-c2ccccc2)nn1Cc1ccc(Cl)cc1Cl`, the EC50 is on record as > 150 µM (not active).
Same read-out and setting: to `CC[C@@H]1CC=C[C@H]2[C@H]1C(=O)N(Cc1ccccc1)[C@H]2c1ccc(OC)c(Cl)c1` belongs 4.05 µM (active); to `O=c1cc(-c2ccccc2)[nH]n1-c1nc2ccccc2s1`, > 150 µM (not active).

The subject of a further test is Streptococcus. Put plainly: Group A Streptococcus viability loss, dose response, counter-screen for streptokinase expression inhibitor project, luminescence, BacTiterGlo (AID 1915).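 Note: potency for reduction of bacterial viability or growth.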
Settings: not given
In kind it is functional, organism-based.
On to `O=c1cc(N2CCCCC2)c(-c2ccccc2)nn1Cc1ccc(Cl)cc1Cl`, for which the EC50 was 8.6 µM (active).
Regarding `CC[C@@H]1CC=C[C@H]2[C@H]1C(=O)N(Cc1ccccc1)[C@H]2c1ccc(OC)c(Cl)c1`, the EC50 was 16 µM (active).
For `O=c1cc(-c2ccccc2)[nH]n1-c1nc2ccccc2s1`, the concentration for a half-maximal effect (EC50) was 10.3 µM (active).

Tested on in a further test: not listed separately
Description: Luminescence Cell-Based Dose Retest to Confirm Inhibitors of Cancer Stem Cells. [Related pubchem assays (depositor defined):AID2717, AID2721]. The test is classed as functional, Homo sapiens. The settings on record: Homo sapiens.
As usually defined, the AC50 is the concentration at which the activity in the assay is half-maximal. For `O=c1cc(N2CCCCC2)c(-c2ccccc2)nn1Cc1ccc(Cl)cc1Cl`, the AC50 was 1.65 µM (active).
Same read-out and setting: to `CC[C@@H]1CC=C[C@H]2[C@H]1C(=O)N(Cc1ccccc1)[C@H]2c1ccc(OC)c(Cl)c1` belongs 6.12 µM (active); to `O=c1cc(-c2ccccc2)[nH]n1-c1nc2ccccc2s1`, 2.45 µM (active).

Another test addresses T2, Heat shock factor protein 1 (Mus musculus, UniProt P38532).
T2 sequence (P38532 whole entry): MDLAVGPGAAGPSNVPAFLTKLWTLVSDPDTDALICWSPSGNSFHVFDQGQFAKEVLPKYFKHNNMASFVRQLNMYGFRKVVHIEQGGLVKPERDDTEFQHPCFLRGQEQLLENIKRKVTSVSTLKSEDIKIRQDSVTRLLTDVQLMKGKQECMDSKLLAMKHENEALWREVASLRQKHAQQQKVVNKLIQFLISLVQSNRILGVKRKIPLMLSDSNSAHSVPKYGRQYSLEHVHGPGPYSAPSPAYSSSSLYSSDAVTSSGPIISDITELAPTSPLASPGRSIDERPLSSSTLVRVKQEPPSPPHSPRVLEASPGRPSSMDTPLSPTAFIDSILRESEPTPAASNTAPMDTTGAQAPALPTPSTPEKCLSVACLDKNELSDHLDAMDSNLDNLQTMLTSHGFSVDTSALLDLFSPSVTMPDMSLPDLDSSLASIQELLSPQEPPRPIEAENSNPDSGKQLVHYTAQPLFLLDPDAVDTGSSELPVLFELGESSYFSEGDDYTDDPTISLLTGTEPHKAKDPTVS
Put plainly: HSF1 potentiators in luciferase reporter cells, confirmation, cell-based, NIH3T3, luminescence, dose retest (AID 435004).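 Note: stress induced by proteasome inhibitor MG132 added 30 min after compound; luciferase reporter driven by HSF1 response element in NIH3T3 cells; actives raise luminescence as potentiators of the MG132 stress response.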 The test is classed as functional.
Settings: not given
Background: In a reporter assay the amount or activity of a reporter protein is the signal.
Regarding `CN1CCN(Cc2c(O)ccc3cc(Br)ccc23)CC1`, the EC50 was 11.2 µM (active).
`Cc1ccc(CSc2nc3ccccc3c(=O)n2CCCC(=O)NCc2ccco2)cc1`: the EC50 was > 260 µM (inactive).
In the case of `CCc1cc2c(SCC#N)ncnc2s1`, the EC50 was > 260 µM (inactive).
For the compound `C=CCNC(=O)c1c(N)n(Cc2ccco2)c2nc3ccccc3nc12`, the 50% effective concentration (EC50) is 43.4 µM (active).
In the case of `COc1ccc2[nH]c(C)c(CCNc3ccc(C(F)(F)F)cc3[N+](=O)[O-])c2c1`, the EC50 was > 260 µM (inactive).
Consider `O=c1c2ccccc2[nH]c(=S)n1CCC1=CCCCC1`, for which the EC50 is > 260 µM (inactive).
Take `FC(F)(F)c1ccc(Sc2nnc(-c3cccs3)n2CC2CCCO2)nc1` (configuration not stated): the EC50 was > 260 µM (inactive).
Still for that read-out and setting: under `CCCc1nc2oc3cc(OC)ccc3c(=O)c2c(=O)n1CCc1ccccc1` stands > 260 µM (inactive); under `CCC(NC(=O)/C(=C\c1ccc2c(c1)OCO2)NC(C)=O)C(=O)O` (configuration not stated), > 260 µM (inactive).
The same measure, in the same setting: to `COc1ccc(C2N(C(=O)CN3CCCC3)CCCN2S(=O)(=O)c2ccccc2)cc1` (configuration not stated) belongs > 260 µM (inactive); to `COc1ccc(NC(=O)COC(=O)/C=C/C(=O)OCC(=O)Nc2ccc(OC)c(Cl)c2)cc1Cl`, 6.53 µM (active).
`O=C1c2ccccc2C(=O)N1CCC(=O)N1CCCc2ccccc21`: the EC50 was > 260 µM (inactive).
Take `Cc1nc(S(=O)(=O)c2ccc(Cl)cc2)c(NCc2ccccc2)o1`: the EC50 was > 260 µM (inactive).
Regarding `COC(=O)Cn1c2ccc(OC)cc2c2nc(C)sc21`, the EC50 is > 260 µM (inactive).
With `O=C(CN1C(=O)NC2(CCCC2)C1=O)NCCN1C(=O)S/C(=C\c2ccccc2F)C1=O`, the EC50 was > 260 µM (inactive).
As for `Cc1ccc(S(=O)(=O)c2c(C)cc(C)nc2N2CCCCC2)cc1`, the EC50 is > 260 µM (inactive).
For the compound `CC(C)c1ccc(C2NC(=O)c3ccccc3O2)cc1` (configuration not stated), the EC50 is 21.2 µM (active).
The same measure, in the same setting: to `O=C(CN1c2ccccc2S(=O)(=O)c2ccccc21)NCc1ccc(F)cc1` belongs > 260 µM (inactive); to `CCOC(=O)N1CCN(C(=O)CS(=O)(=O)c2cn(Cc3ccc(F)cc3)c3ccccc23)CC1`, > 260 µM (inactive); to `CNc1c(NS(=O)(=O)c2ccc(F)c(Cl)c2)c(=O)oc2ccccc12`, > 260 µM (inactive).
